Laboratory results as given in patent US20080015181A1, “Pharmaceutical Compositions Comprising Droxidopa” (Chelsea Therapeutics, Inc., priority 2006, published 2008).

Legend:
[1] = system: plasma norepinephrine; test: Plasma norepinephrine concentration after dosing of droxidopa or droxidopa combinations in rats; format: in vivo, male Sprague Dawley rats; conditions: 2 hours post-dosing, rat
Description: The pharmacokinetic properties of droxidopa combinations according to the invention were evaluated in male Sprague Dawley rats. Four test groups with four rats in each group were established. Group 1 was administered droxidopa alone as a baseline group. Group 2 was administered droxidopa in combination with the COMT inhibitor entacapone. Group 3 was administered droxidopa in combination with the cholinesterase inhibitor pyridostigmine. Group 4 was administered droxidopa in combination with the MAOI nialamide. For each group, the droxidopa or droxidopa combination was formulated with a vehicle formed of a water solution containing 1% carboxymethylcellulose with 0.2% TWEEN® 80 emulsifier. […] The amounts of entacapone, pyridostigmine, and nialamide used in formulations 2-7 were provided as “low” doses and “high” doses based upon disclosure in the literature of generally accepted dosage ranges for their respective known indications.
Rats in each group were given a single gavage dose of droxidopa alone or the droxidopa combination, the time of dosing being recorded as time=0. Dosing was based upon the weight of the subject and was adjusted to provide all test subjects a droxidopa dose of approximately 100 mg per kg of body weight. Blood samples (approximately 100 μL) were collected at approximately 5, 15, and 30 minutes, and at approximately 1, 2, 4, 8, and 24 hours after dosing. […]

[2] = compound co-administered with droxidopa, relative to droxidopa alone; rat
Description: The pharmacokinetic properties of droxidopa combinations according to the invention were evaluated in male Sprague Dawley rats. Four test groups with four rats in each group were established. Group 1 was administered droxidopa alone as a baseline group. Group 2 was administered droxidopa in combination with the COMT inhibitor entacapone. Group 3 was administered droxidopa in combination with the cholinesterase inhibitor pyridostigmine. Group 4 was administered droxidopa in combination with the MAOI nialamide. For each group, the droxidopa or droxidopa combination was formulated with a vehicle formed of a water solution containing 1% carboxymethylcellulose with 0.2% TWEEN® 80 emulsifier.
Rats in each group were given a single gavage dose of droxidopa alone or the droxidopa combination, the time of dosing being recorded as time=0. Dosing was based upon the weight of the subject and was adjusted to provide all test subjects a droxidopa dose of approximately 100 mg per kg of body weight. […]
As a standard, plasma droxidopa concentration in rats administered the drug vehicle with no droxidopa or droxidopa combinations present was also evaluated, and no droxidopa was detected over a 24 hour period in plasma from the rats administered the vehicle alone. Likewise, no droxidopa was detected in any subjects prior to dosing of the droxidopa or droxidopa combinations. […]

[3] = system: MAO-A than MAO-B; conditions: known; cited from earlier work

Structure (SMILES): CCN(CC)C(=O)/C(C#N)=C/c1cc(O)c(O)c([N+](=O)[O-])c1 [entacapone, [(E)-2-cyano-N,N-diethyl-3-(3,4-dihydroxy-5-nitrophenyl)propenamide]]
- plasma norepinephrine concentration in relation to treatment with droxidopa alone (in words) ([1]; compound combined with droxidopa): increased plasma norepinephrine concentration beyond the effect of droxidopa alone

Structure (SMILES): NC(C(=O)O)C(O)c1ccc(O)c(O)c1 (stereo not drawn) [droxidopa, threo-3-(3,4-dihydroxyphenyl)serine]
- increase in plasma norepinephrine concentration ([1]; droxidopa alone versus vehicle alone): ~5 fold

Structure (SMILES): CN(C)C(=O)Oc1ccc[n+](C)c1 [pyridostigmine, 3-dimethylcarbamoyloxy-1-methylpyridinium]
- effect on droxidopa half-life (in words) [2]: increase in droxidopa half-life

Structure (SMILES): O=C(NCCN1CCOCC1)c1ccc(Cl)cc1 [moclobemide]
- selectivity for MAO-A than MAO-B [3]: approximately three times more selective for MAO-A than MAO-B
